Data taken from ChEMBL document CHEMBL1201862, “PubChem BioAssay data set” (2004).
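Assay format: 96-well plates, 48-hour exposure. GI50 = concentration required for 50% inhibition of growth.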 Active and inactive are the calls of the source. No stated cut-off is given here; in the data, active = GI50 up to about 1.1 µM and inactive = higher.

How the values were obtained:
Experiment in all cases: DTP human tumour cell line panel, 48 h
A549 = test system: A549
Malme-3M = test system: Malme-3M
SK-MEL-28 = test system: SK-MEL-28
NCI-H226 = test system: NCI-H226
COLO 205 = test system: COLO 205
CCRF-CEM = test system: CCRF-CEM
SR = test system: SR
ACHN = test system: ACHN
LOX IMVI = test system: LOX IMVI
BT-549 = test system: BT-549
OVCAR-5 = test system: OVCAR-5
SN12C = test system: SN12C
MDA-MB-435 = test system: MDA-MB-435
T47D = test system: T47D
786-0 = test system: 786-0
HCT-15 = test system: HCT-15
Hs-578T = test system: Hs-578T
MDA-N = test system: MDA-N
A498 = test system: A498
RPMI-8226 = test system: RPMI-8226
HOP-62 = test system: HOP-62
EKVX = test system: EKVX
IGROV-1 = test system: IGROV-1
NCI/ADR-RES = test system: NCI/ADR-RES
KM12 = test system: KM12
MDA-MB-231 = test system: MDA-MB-231
HCT-116 = test system: HCT-116
NCI-H522 = test system: NCI-H522
UACC-62 = test system: UACC-62
NCI-H460 = test system: NCI-H460
TK-10 = test system: TK-10
SF-295 = test system: SF-295
SK-MEL-2 = test system: SK-MEL-2
SNB-75 = test system: SNB-75
SK-OV-3 = test system: SK-OV-3
HT-29 = test system: HT-29
MOLT-4 = test system: MOLT-4
M14 = test system: M14
OVCAR-4 = test system: OVCAR-4
MCF7 = test system: MCF7
SF-268 = test system: SF-268
UO-31 = test system: UO-31
K562 = test system: K562
SK-MEL-5 = test system: SK-MEL-5
SF-539 = test system: SF-539
U-251 = test system: U-251
NCI-H23 = test system: NCI-H23
CAKI-1 = test system: CAKI-1
DU-145 = test system: DU-145
OVCAR-8 = test system: OVCAR-8
SNB-19 = test system: SNB-19
RXF 393 = test system: RXF 393
HOP-92 = test system: HOP-92
OVCAR-3 = test system: OVCAR-3
SW-620 = test system: SW-620
HCC 2998 = test system: HCC 2998
HL-60 = test system: HL-60
PC-3 = test system: PC-3
UACC-257 = test system: UACC-257
DLD-1 = test system: DLD-1
KM-20L2 = test system: KM-20L2
SNB-78 = test system: SNB-78
LXFL 529 = test system: LXFL 529
M19-MEL = test system: M19-MEL
DMS-273 = test system: DMS-273

COc1cc2c3c(n(C)c(=O)c2cc1OC)-c1cc2c(cc1C3=O)OCO2
GI50 (A549): 55.1 µM (inactive)
GI50 (Malme-3M): 67.5 µM (inactive)
GI50 (SK-MEL-28): > 66.1 µM (inactive)
GI50 (NCI-H226): > 72.8 µM (inactive)
GI50 (COLO 205): > 100 µM (inactive)
GI50 (CCRF-CEM): 0.237 µM (active)
GI50 (SR): 0.105 µM (active)
GI50 (ACHN): 1.01 µM (active)
GI50 (LOX IMVI): 8.59 µM (inactive)
GI50 (BT-549): > 86.9 µM (inactive)
GI50 (OVCAR-5): 54 µM (inactive)
GI50 (SN12C): 38.6 µM (inactive)
GI50 (MDA-MB-435): 90.6 µM (inactive)
GI50 (T47D): 6.64 µM (inactive)
GI50 (786-0): 16.9 µM (inactive)
GI50 (HCT-15): > 96.2 µM
GI50 (Hs-578T): > 80 µM (inactive)
GI50 (MDA-N): 41.6 µM (inactive)
GI50 (A498): 46.2 µM (inactive)
GI50 (RPMI-8226): 71.3 µM (inactive)
GI50 (HOP-62): 1.87 µM (inactive)
GI50 (EKVX): 35.3 µM (inactive)
GI50 (IGROV-1): 2.47 µM (inactive)
GI50 (NCI/ADR-RES): 41.9 µM (inactive)
GI50 (KM12): > 100 µM (inactive)
GI50 (MDA-MB-231): > 57.1 µM (inactive)
GI50 (HCT-116): 6.35 µM (inactive)
GI50 (NCI-H522): 1.46 µM (inactive)
GI50 (UACC-62): 1.7 µM (inactive)
GI50 (NCI-H460): 0.596 µM (active)
GI50 (TK-10): > 100 µM (inactive)
GI50 (SF-295): 0.871 µM (active)
GI50 (SK-MEL-2): > 42 µM (inactive)
GI50 (SNB-75): 3.73 µM (inactive)
GI50 (SK-OV-3): 11.3 µM (inactive)
GI50 (HT-29): 46.5 µM (inactive)
GI50 (MOLT-4): 0.44 µM (active)
GI50 (M14): 9.91 µM (inactive)
GI50 (OVCAR-4): > 100 µM (inactive)
GI50 (MCF7): 1.23 µM (inactive)
GI50 (SF-268): 10.7 µM (inactive)
GI50 (UO-31): 1.63 µM (inactive)
GI50 (K562): 6.87 µM (inactive)
GI50 (SK-MEL-5): 9.2 µM (inactive)
GI50 (SF-539): 8.75 µM (inactive)
GI50 (U-251): 9.38 µM (inactive)
GI50 (NCI-H23): 5.01 µM (inactive)
GI50 (CAKI-1): 4.98 µM (inactive)
GI50 (DU-145): 12 µM (inactive)
GI50 (OVCAR-8): 38.4 µM (inactive)
GI50 (SNB-19): 27.1 µM (inactive)
GI50 (RXF 393): 30.3 µM (inactive)
GI50 (HOP-92): 38.2 µM (inactive)
GI50 (OVCAR-3): 53.5 µM (inactive)
GI50 (SW-620): 10.2 µM (inactive)
GI50 (HCC 2998): > 80.5 µM (inactive)
GI50 (HL-60): 22 µM (inactive)
GI50 (PC-3): > 70 µM (inactive)
GI50 (UACC-257): > 83.9 µM (inactive)

CCOC(=O)C(C(=O)OCC)=c1sc(=C(C(=O)OCC)C(=O)OCC)s1
GI50 (A549): > 100 µM (inactive)
GI50 (Malme-3M): > 100 µM (inactive)
GI50 (DLD-1): > 100 µM (inactive)
GI50 (SK-MEL-28): > 100 µM (inactive)
GI50 (COLO 205): > 100 µM (inactive)
GI50 (CCRF-CEM): > 100 µM (inactive)
GI50 (ACHN): > 100 µM (inactive)
GI50 (KM-20L2): > 100 µM (inactive)
GI50 (LOX IMVI): > 100 µM (inactive)
GI50 (OVCAR-5): > 100 µM (inactive)
GI50 (SN12C): > 100 µM (inactive)
GI50 (786-0): > 100 µM (inactive)
GI50 (HCT-15): > 100 µM
GI50 (RPMI-8226): > 100 µM (inactive)
GI50 (HOP-62): > 100 µM (inactive)
GI50 (EKVX): > 100 µM (inactive)
GI50 (IGROV-1): > 100 µM (inactive)
GI50 (KM12): > 100 µM (inactive)
GI50 (SNB-78): > 100 µM (inactive)
GI50 (NCI-H522): > 100 µM (inactive)
GI50 (UACC-62): > 100 µM (inactive)
GI50 (NCI-H460): > 100 µM (inactive)
GI50 (TK-10): > 100 µM (inactive)
GI50 (SF-295): > 100 µM (inactive)
GI50 (SK-MEL-2): > 100 µM (inactive)
GI50 (SNB-75): 76.2 µM (inactive)
GI50 (SK-OV-3): > 100 µM (inactive)
GI50 (HT-29): > 100 µM (inactive)
GI50 (MOLT-4): > 100 µM (inactive)
GI50 (M14): > 100 µM (inactive)
GI50 (OVCAR-4): > 100 µM (inactive)
GI50 (SF-268): > 100 µM (inactive)
GI50 (LXFL 529): > 100 µM (inactive)
GI50 (K562): > 100 µM (inactive)
GI50 (SK-MEL-5): > 100 µM (inactive)
GI50 (M19-MEL): > 100 µM (inactive)
GI50 (NCI-H23): > 100 µM (inactive)
GI50 (CAKI-1): > 100 µM (inactive)
GI50 (OVCAR-8): > 100 µM (inactive)
GI50 (RXF 393): > 100 µM (inactive)
GI50 (HOP-92): > 100 µM (inactive)
GI50 (OVCAR-3): > 100 µM (inactive)
GI50 (SW-620): > 100 µM (inactive)
GI50 (HCC 2998): > 100 µM (inactive)
GI50 (HL-60): > 100 µM (inactive)
GI50 (DMS-273): > 100 µM (inactive)
GI50 (UACC-257): > 100 µM (inactive)
